Patent US5260425A, “Anthracycline derivatives having cytostatic activity” (priority 1988, dated 1993)
≈ marks a conversion by molar mass, not a printed value. Read-outs that look alike come from different tables or passages of the source.

Assays:
[1] = Determination of the indicative toxicity; conditions: mouse, in vivo, ip; 3xip,q3d (three intraperitoneal administrations, 3 days interval); survival day 14
Method: To determine the indicative toxicity, NMRI mice receive an intraperitoneal injection of various doses of the test substance dissolved in 0.5 ml of 5% strength glucose solution on day 0. Control groups receive merely 0.5 ml of 5% strength glucose solution. 5 mice are used for each concentration of the test substance. The number of mice surviving on day 14 is determined, and from this the LD5, LD50 and LD95 are determined by the Litchfield-Wilcoxon method. The toxicity (LD50 (mg/kg)) of the compounds described here is summarized in Table 3 by comparison with adriamycin.

[2] = tested on: L1210 mouse leukemia cells; assay: Formation of colonies of L1210 leukemia cells in soft agar (cytotoxicity in vitro); format: cell-based; conditions: for IC50: Mus musculus
Method: The cytostatic activity of the compounds according to the invention has been tested using L1210 mouse leukemia cells. Employed for this purpose was the formation of colonies of L1210 leukemia cells in agar plates. This method is used to detect the effect of the test substances on the growth behavior of the cells over 1 hour or over several generations. In this connection, with a cell cycle time of 10-12 hours about 14 consecutive generations are observed in the 7 days the test lasts. In this test, the substances having cytostatic activity according to the invention bring about a reduction in the number of colonies to be observed by comparison with an untreated control sample.
Procedure for determining the formation of colonies of L1210 leukemia cells in soft agar
500 leukemia cells per plate were incubated with various concentrations of the test substance at 37° C. for 1 hour. The cells were then washed twice with McCoy5A medium and finally, after addition of 0.3% agar, poured into Petri dishes. Controls were incubated only with fresh medium. In place of the incubation for one hour, in some cases various concentrations and test substances were mixed with the upper agar layer in order in this way to achieve continuous exposure of the cells throughout the incubation time. After the agar had solidified, the plates were incubated in an incubator at 37° C. for 7 days (5% by volume CO2, 95% relative humidity). The number of colonies which had been produced with a diameter of more than 60 μm was then counted. The results have been reported as the number of colonies in treated agar plates as a percentage of the untreated control. The IC50 was determined as a measure of the activity of the substance from the dose-effect plot obtained in this way. The results for the compounds described herein, by comparison with adriamycin, are compiled in Table 1.

L1210 leukemia = assay: In vivo activity on L1210 leukemia of the mouse (antitumor activity T/C); conditions: Mus musculus
Method: Ascites fluid is removed from DBA2 mice (female, 18-20 g) under sterile conditions 7 days after inoculation of tumor cells. The ascites is washed three times with PBS (phosphate-buffered saline), counted and adjusted to a cell count of 10^6 in 0.2 ml of PBS.
10^6 cells, suspended in 0.2 ml of PBS, are then injected intraperitoneally into DBF1 mice (female, 18-20 g). 6 animals per group are used for each substance concentration and as controls.
a) The animals are weighed on days 1 and 5 after injection of the test substance. A weight loss of more than 20% on day 5 is regarded as an indicator of a toxic effect of the substance.
b) At the end of the experiment (death of all animals or surviving animals on day 60) the mean survival time of the animals in the particular groups is determined as long as at least 65% of the animals were still alive on day 5 of the experiment. The mean survival time is determined only for animals which die during the course of the experiment. Long-term survivors (LTS) are not included in this calculation and are reported separately.
The antitumor activity (T/C) for the particular substance concentration is determined from the mean survival time (MSTT) in the treated groups and in the control groups (MSTC) as a percentage of the untreated controls in accordance with the following formula: [formula]
The T/C values and the treatment regimen employed in each case are compiled in Table 3, together with the indicative toxicity. T/C values greater than 125% are regarded as an indicator of a significant antitumor activity of the test substance.

[3] = tested on: sensitive and resistant L1210 leukemia cells; assay: Proliferation test (MTT reduction), cross-resistance to doxorubicin/adriamycin in vitro; format: cell-based, mouse
Method: L1210, A 549 or HT 29 in the exponential phase of growth are incubated in a cell density of 5×10^3 cells/ml in RPMI 1640 in a 96-well microtiter plate with various concentrations of the test substance at 37° C., 5% CO2 and 95% relative humidity for 72 h. Control experiments receive merely growth medium in place of the test substance. Quadruplicate determinations are set up for each test substance and for the control. After incubation for 65 h, 50 μl of an MTT solution (2.5 mg/ml; MTT=3-(4,5-dimethylthiazol-2-yl)-2,5-diphenyltetrazoliumbromide) in phosphate-buffered saline) are added. MTT is reduced to a dark red insoluble formazan dyestuff in the presence of live cells. This reaction is complete after 7 h (L1210 cells) or after 24 h (A 549, HT 29 cells), and the supernatant medium is carefully removed by aspiration. The insoluble dyestuff is dissolved by addition of 100 μl of DMSO (dimethyl sulfoxide) and the extinction of the resulting solution at a wavelength of 492 nm is then measured for each well in a multiscan 340 CC photometer from Flow.
The ratio of the extinctions for treated and untreated cells provides a dose-effect plot from which the concentration which just kills 50% of the cells (IC50) can be read off. The coefficient of variation for repeat investigations is less than 15%.
The cross-resistance between the particular test compound and doxorubicin as standard compound is determined with the aid of the MTT test (see above for method) on sensitive and resistant L1210 leukemia cells.
The resistant cell line was established by incubation of a sensitive subline with the reference compound in concentrations which increased stepwise.
The IC50 of the test compound on the resistant subline related to the IC50 of the sensitive subline provides both the degree of resistance for the test Compound (DR(T)) and that for the reference compound (DR(R)) in accordance with the formula [formula]
In addition, the degree of cross-resistance (DCR) for the test compound is calculated in accordance with the formula [formula]
In the case where the loss of effect of the test compound on the resistant line in relation to the sensitive line is greater than that of the reference compound it is possible for the degree of cross-resistance to be above 100%.

[4] = 168 h, continuous incubation, 7 days, L1210 colonies in agar, read-out: IC50, continuous incubation
[5] = 1 h incubation, then 7 days, L1210 colonies in agar, read-out: IC50, 1 h incubation
[6] = L1210, 168 h, read-out: IC50, continuous incubation, continuous incubation, 7 days, L1210 colonies in agar
[7] = L1210, read-out: IC50, 1 h incubation, 1 h incubation, then 7 days, L1210 colonies in agar
[8] = 1 h incubation, then 7 days, L1210 colonies in agar
[9] = continuous incubation, 7 days, L1210 colonies in agar

SMILES	LD50 at 336 h [1] [mg/kg]	IC50 [2, 4] [mg/L]	IC50 [2, 5] [mg/L]	other results
C=CCN(C)[C@H]1C[C@H](O[C@H]2C[C@](O)(CC)[C@H](O)c3c(O)c4c(c(O)c32)C(=O)c2c(O)ccc(O)c2C4=O)O[C@@H](C)[C@H]1O [Compound 9, 7-O-(3'-N-Allyl-3'-N-methyl-alpha-L-daunosaminyl)-β-isorhodomycinone]	> 6	0.008 (≈ 0.0137 µM)	0.5 (≈ 0.854 µM)	
CC[C@@]1(O)C[C@H](O[C@H]2C[C@H](N(C)Cc3ccccn3)[C@H](O)[C@H](C)O2)c2c(O)c3c(c(O)c2[C@H]1O)C(=O)c1cccc(O)c1C3=O [Compound 5, 7-O-(3'-N-Methyl-3'-N-(2-picolyl)-alpha-L-daunosaminyl)-β-rhodomycinone]		0.038 (≈ 0.0612 µM)	0.24 (≈ 0.387 µM)	
CC[C@@]1(O)C[C@H](O[C@H]2C[C@H](N(C)CC3CO3)[C@H](O)[C@H](C)O2)c2c(O)c3c(c(O)c2[C@H]1O)C(=O)c1cccc(O)c1C3=O (stereo partly drawn) [Compound 8m, 7-O-(3'-N-Glycidyl-3'-N-methyl-alpha-L-daunosaminyl)-β-rhodomycinone]				IC50 [2, 6]: 0.002 mg/L (≈ 0.00342 µM); IC50 [2, 7]: 0.0072 mg/L (≈ 0.0123 µM); response vs control in vivo at 0.47 mg/kg (L1210 leukemia; L1210, ip, read-out: T/C, L1210-leukemia in vivo): 114%
CC[C@@]1(O)C[C@H](O[C@H]2C[C@H](N(C)CC(N)=O)[C@H](O)[C@H](C)O2)c2c(O)c3c(c(O)c2[C@H]1O)C(=O)c1cccc(O)c1C3=O [Compound 7, 7-O-(3'-N-Acetamido-3'-N-methyl-alpha-L-daunosaminyl)-β-rhodomycinone]	2 to 5	0.084 (≈ 0.143 µM)	0.24 (≈ 0.409 µM)	response vs control in vivo at 11.2 mg/kg (L1210 leukemia; L1210, iv, 3xiv,q3d, dose 11.2 mg/kg, % of the control): 142%
C=CCN(C)[C@H]1C[C@H](O[C@H]2C[C@](O)(C(C)=O)Cc3c(O)c4c(c(O)c32)C(=O)c2c(OC)cccc2C4=O)O[C@@H](C)[C@H]1O [Compound 15, 7-O-(3'-N-Allyl-3'-N-methyl-alpha-L-daunosaminyl)-daunomycinone]				IC50 [2, 6]: 0.008 mg/L (≈ 0.0138 µM); IC50 [2, 7]: > 1 mg/L
CC[C@@]1(O)C[C@H](O[C@H]2C[C@H](N(C)CC3CO3)[C@H](O)[C@H](C)O2)c2c(O)c3c(c(O)c2[C@H]1O)C(=O)c1cccc(O)c1C3=O (single isomer, unassigned) [Compound 8a, 7-O-(3'-N-Glycidyl-3'-N-methyl-alpha-L-daunosaminyl)-β-rhodomycinone]				IC50, 1 h incubation [2, 8]: 0.0034 mg/L (≈ 0.00581 µM); IC50, continuous incubation [2, 9]: 0.001 mg/L (≈ 0.00171 µM)
C=CCN(C)[C@H]1C[C@H](O[C@H]2C[C@](O)(CC)[C@H](O)c3c(O)c4c(c(O)c32)C(=O)c2c(OC)cccc2C4=O)O[C@@H](C)[C@H]1O [Compound 17, 7-O-(3'-N-Allyl-3'-N-methyl-alpha-L-daunosaminyl)-4-O-methyl-β-rhodomycinone]		0.036 (≈ 0.0617 µM)	> 1	
CC[C@@]1(O)C[C@H](O[C@H]2C[C@H](N(C)Cc3ccncc3)[C@H](O)[C@H](C)O2)c2c(O)c3c(c(O)c2[C@H]1O)C(=O)c1cccc(O)c1C3=O [Compound 4, 7-O-(3'-N-Methyl-3'-N-(4-picolyl)-alpha-L-daunosaminyl)-β-rhodomycinone]	2.5 to 5	0.023 (≈ 0.0371 µM)	0.1 (≈ 0.161 µM)	Cross-resistance to doxorubicin (in words) ([3]; L1210, MTT, in vitro): not cross-resistant to doxorubicin; Degree of resistance of the cell ([3]; MTT, 3d, IC50 resistant subline related to IC50 sensitive subline): 1.6; Cross-resistance to adriamycin (degree of cross-resistance) ([3]; MTT, 3d, adriamycin = 100.0): 0.2%
CC[C@@]1(O)C[C@H](O[C@H]2C[C@H](N(C)Cc3cccs3)[C@H](O)[C@H](C)O2)c2c(O)c3c(c(O)c2[C@H]1O)C(=O)c1cccc(O)c1C3=O [Compound 13, 7-O-(3'-N-Methyl-3'-N-(2-thenyl)-alpha-L-daunosaminyl)-β-rhodomycinone]		0.034 (≈ 0.0543 µM)	0.38 (≈ 0.607 µM)	
CC[C@@]1(O)C[C@H](O[C@H]2C[C@H](N(C)CC3CO3)[C@H](O)[C@H](C)O2)c2c(O)c3c(c(O)c2[C@H]1O)C(=O)c1cccc(O)c1C3=O (single isomer, unassigned) [Compound 8b, 7-O-(3'-N-Glycidyl-3'-N-methyl-alpha-L-daunosaminyl)-β-rhodomycinone]				IC50, 1 h incubation [2, 8]: 0.01 mg/L (≈ 0.0171 µM); IC50, continuous incubation [2, 9]: 0.003 mg/L (≈ 0.00512 µM)
CCOC(=O)CN(C)[C@H]1C[C@H](O[C@H]2C[C@](O)(CC)[C@H](O)c3c(O)c4c(c(O)c32)C(=O)c2c(O)cccc2C4=O)O[C@@H](C)[C@H]1O [Compound 10, 7-O-(3'-N-(Ethoxycarbonylmethyl)-3'-N-methyl-alpha-L-daunosaminyl)-β-rhodomycinone]	10 to 25	0.1 (≈ 0.162 µM)	0.06 (≈ 0.0975 µM)	response vs control in vivo at 12.7 mg/kg (L1210 leukemia; L1210, iv, 3xiv,q3d, dose 12.7 mg/kg, % of the control): 132%
CC[C@@]1(O)C[C@H](O[C@H]2C[C@H](N(C)CCO)[C@H](O)[C@H](C)O2)c2c(O)c3c(c(O)c2[C@H]1O)C(=O)c1cccc(O)c1C3=O [Compound 3, -O-(3'-N-Hydroxyethyl-3'-N-methyl-alpha-L-daunosaminyl)-β-rhodomycinone]	0.2 to 1	0.02 (≈ 0.0349 µM)	0.044 (≈ 0.0767 µM)	response vs control in vivo at 1.13 mg/kg (L1210 leukemia; L1210, iv, 3xiv,q3d, dose 1.13 mg/kg, % of the control): 108%
CC[C@@]1(O)C[C@H](O[C@H]2C[C@H](N(C)CC(C)=O)[C@H](O)[C@H](C)O2)c2c(O)c3c(c(O)c2[C@H]1O)C(=O)c1cccc(O)c1C3=O [Compound 18, 7-O-(3'-N-Acetonyl-3'-N-methyl-alpha-L-daunosaminyl)-β-rhodomycinone]		0.018 (≈ 0.0307 µM)	0.073 (≈ 0.125 µM)	
